Results as given in paper PMC7143862, “Prostaglandins Isolated from the Octocoral Plexaura homomalla: In Silico and In Vitro Studies Against Different Enzymes of Cancer” (Marine Drugs, 2020).
≈ marks a conversion by molar mass, not a printed value.

Experiments:
skin cancer cells = tested on: skin cancer cells; parameters: method as in PMID 30858059, PMID 28292936; conditions: cited from earlier work
p38α-kinase = target: T1, p38α-kinase (Homo sapiens, UniProt Q16539); experiment: p38α Kinase Enzyme System, ADP-Glo luminescence; format: biochemical
T1 construct: purchased Promega Corporation
T1 sequence (Q16539 whole entry): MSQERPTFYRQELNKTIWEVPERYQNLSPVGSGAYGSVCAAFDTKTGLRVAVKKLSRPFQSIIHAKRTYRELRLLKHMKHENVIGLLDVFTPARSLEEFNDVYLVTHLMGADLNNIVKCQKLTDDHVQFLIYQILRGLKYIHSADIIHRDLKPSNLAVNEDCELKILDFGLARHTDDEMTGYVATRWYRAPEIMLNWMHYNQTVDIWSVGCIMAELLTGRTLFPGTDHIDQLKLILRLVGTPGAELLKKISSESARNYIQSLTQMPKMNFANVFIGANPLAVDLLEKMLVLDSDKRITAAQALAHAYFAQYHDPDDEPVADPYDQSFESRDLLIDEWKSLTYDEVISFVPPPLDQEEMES
Source text: Possibly due to a higher concentration of compounds that generate interaction with a site of the enzymes different from the active site, which leads to a lower inhibition, as explained by Abdel-Magid, where it is stated that most of the drugs are designed to join the primary active sites of the enzymes, known as orthostatic sites. However, these can also have secondary sites or allosteric, in which, at the time of the inhibitors join them, a secondary effect is generated causing an increase in enzymatic activity. Therefore, it was not possible to obtain an IC50 value and the results were analyzed by the area under the curve (AUC). This performs the integral of the function of the logarithm of the concentration vs. luminescence for each of the compounds, and in this way to be able to compare the activity between them.
(§1) For the assay of the enzymatic activity, the p38α Kinase Enzyme System (Promega Corporation, Madison, WI, USA) and Src Kinase Enzyme System (Promega Corporation, Madison, WI, USA) kits were used. In this case 25 μL of reaction were added to each well (in the final concentrations shown in Table 4), where 10 μL were from substrate solution (0.2 mg/mL substrate, ATP and 1 × buffer kinase (Promega Corporation)), 10 μL of kinase solution (kinase (Promega Corporation), 1 × buffer kinase (Promega Corporation) and nuclease-free water) and 5 μL of the compounds initially prepared at 1 mM in DMSO and performing serial dilutions in Buffer Kinase (Promega Corporation) from 10 μM to 0.625 μM according to protocol for the kits (Promega Corporation, 2018). The plates were left at room temperature for 1 h, then 25 μL of ADP-Glo ™ Reagent (Promega Corporation) were added, these were placed at room temperature again for 40 min. Finally, 50 μL of the kinase detection reagent will be added and left at room temperature for 45 min [28]. The measurement was made by means of luminescence in an integration time of 0.5 to 1 s in the GENios Plus microplate reader (Grödig/Salzburg, Austria).

[1] = tested on: MDA-MB-231 breast cancer cell line; experiment: MTT cell proliferation assay, MDA-MB-231; format: cell-based; conditions: Homo sapiens, 48 h treatment, breast cancer cells
Source text: (§2) All materials and reagents for cell culture were purchased from Sigma Aldrich (Saint Louis, MS, USA). For the assay, two human cancer cell lines and two cell lines, one human and one mouse as controls, were used. The human breast cancer cell line (MDA-MB-231 ATCC®) and lung cancer cell line (A549 ATCC®) were maintained in Dulbecco’s modified Eagle medium (DMEM) supplemented with 10% of fetal bovine serum and 1% of penicillin. The primary human dermal fibroblasts from adult skin (HDFa ATCC®) and the cell line from mouse adipose tissue (L929 ATCC®) were maintained in Roswell Park Memorial Institute medium (RPMI) supplemented with 10% of fetal bovine serum and 1% of penicillin, all cells in incubator with 5% CO2 at 37 °C [25].
(§3) Antiproliferative studies were carried out using the modified MTT assay based on a previously published method. In this case, 100 μL of cell suspension from the tumor lines was seeded in 96-well plates with a cellular density of 20,000 cells/well and incubated with 5% CO2 at 37 °C to allow cell adhesion. After 48 h, the supernatant was discarded and the cells were treated with different concentrations (5, 10, 25, 50, and 100 μg/mL) of the natural compounds 1 and 2 and the semisynthetic derivatives 3–5 dissolved in an unsupplemented medium. The plate was incubated for 48 h with 5% CO2 at 37 °C. Subsequently, 100 μL of an MTT solution at 0.5 mg/mL was added to each well and placed back in the incubator for 2 h. The supernatant was removed and 100 μL of DMSO was added to incubate for 15 min. Finally, absorbance (OD) at 595 nm was measured on an iMark ™ Microplate reader (Bio-Rad, Hercules, CA, USA).
(§4) The cytotoxic activity was quantified by calculating the mean inhibitory concentration (IC50), normalizing the absorbance data and converting them into percentages of inhibition. With a nonlinear 4PL regression, the IC50 was found, as developed by Sebaugh, using the PrimsGraph Pad® program (GraphPad Software Inc., San Diego, CA, USA).

[2] = tested on: A549 lung cancer cell line; experiment: MTT cell proliferation assay, A549; format: cell-based, human; conditions: lung cancer cells; for IC50: Homo sapiens, A549, 48 h treatment
Source text: as §2, §3, §4

[3] = tested on: HDFa dermal fibroblast cell line; experiment: MTT cell proliferation assay, HDFa; format: cell-based; conditions: 48 h treatment, healthy human dermal fibroblasts
Source text: as §2, §3, §4

Src-kinase = target: T2, Src-kinase (Homo sapiens, UniProt P12931); experiment: Src Kinase Enzyme System, ADP-Glo luminescence; format: biochemical; conditions: for Src-kinase area under the curve (AUC): log concentration vs. luminescence, 10 to 0.625 μM, smaller area = more inhibition
T2 construct: purchased Promega Corporation
T2 sequence (P12931 whole entry): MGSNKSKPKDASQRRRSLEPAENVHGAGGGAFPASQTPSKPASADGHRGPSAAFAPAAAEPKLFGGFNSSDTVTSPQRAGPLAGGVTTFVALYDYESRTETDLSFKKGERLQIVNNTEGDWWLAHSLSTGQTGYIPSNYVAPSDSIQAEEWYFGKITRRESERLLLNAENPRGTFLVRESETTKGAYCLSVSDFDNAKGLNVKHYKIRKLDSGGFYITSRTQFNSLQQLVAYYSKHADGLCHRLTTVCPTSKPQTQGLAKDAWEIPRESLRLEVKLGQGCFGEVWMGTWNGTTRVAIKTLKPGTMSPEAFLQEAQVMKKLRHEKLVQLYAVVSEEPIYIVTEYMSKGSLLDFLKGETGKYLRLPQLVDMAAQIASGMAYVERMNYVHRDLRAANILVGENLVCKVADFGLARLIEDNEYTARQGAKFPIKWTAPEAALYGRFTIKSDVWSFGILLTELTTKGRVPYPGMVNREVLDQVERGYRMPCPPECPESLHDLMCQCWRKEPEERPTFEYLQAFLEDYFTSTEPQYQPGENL
Source text: On the other hand, there are several enzymes that may be involved in several types of cancer, such as non-receptor tyrosine kinase (c-Src) which belongs to the family of kinases and is expressed in all cell types, but its activity is related to advanced malignancies and an unfavorable prognoses of human cancers, so it is considered a molecular target for studies of potential inhibitors. As with the previous enzyme, similar behavior was obtained, so the area under the curve of each of the compounds was also calculated in order to know which of them generate greater inhibition.
as §1

[4] = tested on: L929 fibroblast cell line; experiment: MTT cell proliferation assay, L929; format: cell-based; conditions: 48 h treatment, healthy mouse fibroblasts
Source text: as §2, §3, §4

topoisomerase IIα = target: T3, topoisomerase IIα (Homo sapiens, UniProt P11388); experiment: Topoisomerase IIα drug detection kit, kDNA agarose gel; format: biochemical; conditions: normalized with 1% DMSO
T3 construct: purchased TopoGen
T3 sequence (P11388 whole entry): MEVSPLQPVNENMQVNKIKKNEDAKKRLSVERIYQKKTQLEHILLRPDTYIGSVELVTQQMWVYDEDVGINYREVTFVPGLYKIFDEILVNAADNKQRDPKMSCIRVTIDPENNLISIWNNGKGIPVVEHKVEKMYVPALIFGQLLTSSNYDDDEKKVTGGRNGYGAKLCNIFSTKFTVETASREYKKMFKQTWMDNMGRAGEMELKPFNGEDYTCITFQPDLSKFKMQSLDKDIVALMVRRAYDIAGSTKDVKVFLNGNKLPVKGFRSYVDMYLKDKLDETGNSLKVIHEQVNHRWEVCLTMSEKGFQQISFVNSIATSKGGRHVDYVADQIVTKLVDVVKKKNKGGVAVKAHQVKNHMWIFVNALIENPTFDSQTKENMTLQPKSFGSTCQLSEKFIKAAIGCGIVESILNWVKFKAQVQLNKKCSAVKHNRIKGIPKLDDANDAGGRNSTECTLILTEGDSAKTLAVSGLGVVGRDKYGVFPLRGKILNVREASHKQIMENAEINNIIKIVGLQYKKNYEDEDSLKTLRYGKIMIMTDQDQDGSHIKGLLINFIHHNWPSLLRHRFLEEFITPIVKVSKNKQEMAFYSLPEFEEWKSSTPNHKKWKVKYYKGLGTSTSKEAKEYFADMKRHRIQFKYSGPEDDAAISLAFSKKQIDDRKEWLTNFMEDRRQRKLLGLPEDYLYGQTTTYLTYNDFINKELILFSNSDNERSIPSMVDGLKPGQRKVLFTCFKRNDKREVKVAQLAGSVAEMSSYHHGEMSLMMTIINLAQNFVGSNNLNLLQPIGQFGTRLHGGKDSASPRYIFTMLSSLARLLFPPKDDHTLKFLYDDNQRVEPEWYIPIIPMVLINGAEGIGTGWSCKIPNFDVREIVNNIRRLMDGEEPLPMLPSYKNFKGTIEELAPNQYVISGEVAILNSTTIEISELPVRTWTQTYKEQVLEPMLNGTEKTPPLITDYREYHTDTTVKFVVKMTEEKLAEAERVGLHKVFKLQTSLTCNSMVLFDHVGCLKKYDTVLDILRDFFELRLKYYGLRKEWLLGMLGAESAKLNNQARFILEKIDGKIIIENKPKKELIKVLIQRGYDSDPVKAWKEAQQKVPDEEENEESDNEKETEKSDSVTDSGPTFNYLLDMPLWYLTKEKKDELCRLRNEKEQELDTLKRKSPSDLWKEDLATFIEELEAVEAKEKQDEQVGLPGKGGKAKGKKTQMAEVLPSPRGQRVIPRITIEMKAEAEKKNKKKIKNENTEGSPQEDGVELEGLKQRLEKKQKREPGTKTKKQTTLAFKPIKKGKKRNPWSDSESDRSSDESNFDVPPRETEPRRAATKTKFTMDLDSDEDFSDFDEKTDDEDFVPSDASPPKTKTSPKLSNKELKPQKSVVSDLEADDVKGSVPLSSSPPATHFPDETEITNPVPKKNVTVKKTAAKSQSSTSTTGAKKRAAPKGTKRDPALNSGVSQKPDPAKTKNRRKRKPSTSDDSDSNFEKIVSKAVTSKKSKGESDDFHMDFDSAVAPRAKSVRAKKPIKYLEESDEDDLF
Description: The Topoisomerase IIα drug detection kit (TopoGen, Buena Vista, VA, USA) was used. Reactions were made with 4 μL of reaction buffer (50 mM Tris-HCl, 5 mM ATP, 150 mM NaCl, 30 μg/mL bovine serum albumin, 0.5 mM dithiothreitol, 10 mM MgCl2), 1 μL of the enzyme topoisomerase IIα ([…], 2 units), 1 μL of the kDNA substrate (approximately 200 ng) and 1 μL of the compounds with activity at 10 μM, so that the final volume was 20 μL completing with nuclease-free water. These reactions were incubated at 37 °C for 30 min, and the reaction was terminated with 4 μL of stop buffer.

[5] = tested on: lung cancer cells line (A549); parameters: method as in PMID 28635645; conditions: cited from earlier work

Row | Compound | inhibition at 2.5 µM (p38α-kinase) | IC50 [1] | IC50 A549 ([2]; 48 h treatment) | IC50 [2] | inhibition at 2.5 µM (Src-kinase) | Src-kinase area under the curve (AUC) (Src-kinase) | inhibition at 10 µM (topoisomerase IIα) | p38α-kinase % inhibition (p38α-kinase; at 2.5 μM) | IC50 (skin cancer cells) | IC50 [3] | IC50 [4] | IC50 [5]
1 | CCCCC/C=C/C=C1/C(=O)C=CC1C/C=C\CCCC(=O)NCCO (stereo not shown) [15-deoxy-Δ^12,14-PGJ2-EA] |  |  |  |  |  |  |  |  | 20 µM |  |  | 
2 | CCCCCC(/C=C/[C@H]1C=CC(=O)[C@@H]1C/C=C\CCCC(=O)OC)OC(C)=O (stereo partly shown) [Compound 1, (5Z,13E)-15-acetyl-oxy-9-oxo-prosta-5,10,13-trien-1-oic acid methyl ester] | 42% | 27.5 µg/mL (≈ 70.5 µM) | ineffective | > 100 µg/mL | < 40% | above 1500 | 45% |  |  | 28.3 µg/mL (≈ 72.4 µM) | 71.7 µg/mL (≈ 184 µM) | 
3 | CCCCCC(O)/C=C/[C@H]1C=CC(=O)[C@@H]1C/C=C\CCCC(=O)O (stereo partly shown) [Compound 2, (5Z,13E) -15-hydroxy-9-oxoprosta 5,10,13 trien-1-oic acid] | 49% | 16.5 µg/mL (≈ 49.2 µM) |  | 25.2 µg/mL (≈ 75.3 µM) | 59% | 921 | 64% |  |  | 17.9 µg/mL (≈ 53.4 µM) | 40.4 µg/mL (≈ 121 µM) | 
4 | CCCCCC(/C=C/[C@H]1CC[C@@H](O)[C@@H]1C/C=C\CCCC(=O)OC)OC(C)=O (stereo partly drawn) [Compound 3, (5Z,9β,13E)-15-acetyloxy-9-hydroxy-prosta-5,13-dien-1-oic acid methyl ester] | 37% | > 100 µg/mL |  | > 100 µg/mL | < 40% |  | 43% |  |  | > 100 µg/mL | > 100 µg/mL | 
5 | CCCCC[C@H](O)/C=C/[C@H]1C(=O)C[C@H](O)[C@@H]1C/C=C\CCCC(=O)NCCO [PGD2-EA] |  |  |  |  |  |  |  |  | 18 µM |  |  | 
6 | sardysterol |  |  |  |  |  |  |  |  |  |  |  | 27.3 µM

Now from value to compound, other results behind:

Row | inhibition at 2.5 µM (p38α-kinase) | IC50 [1] | IC50 A549 ([2]; 48 h treatment) | IC50 [2] | inhibition at 2.5 µM (Src-kinase) | Src-kinase area under the curve (AUC) (Src-kinase) | inhibition at 10 µM (topoisomerase IIα) | p38α-kinase % inhibition (p38α-kinase; at 2.5 μM) | Compound | IC50 (skin cancer cells) | IC50 [3] | IC50 [4] | IC50 [5]
7 | 37% | > 100 µg/mL |  | > 100 µg/mL | < 40% |  | 26% |  | CCCCCC(/C=C/[C@H]1CC[C@H](O)[C@@H]1C/C=C\CCCC(=O)OC)OC(C)=O (stereo partly drawn) [Compound 4, (5Z,9α,13E)-15-acetyloxy-9-hydroxy-prosta-5,13-dien-1-oic acid methyl ester] |  | 50.7 µg/mL (≈ 128 µM) | 54.3 µg/mL (≈ 138 µM) | 
8 | 39% | > 100 µg/mL |  | > 100 µg/mL | 46% |  | 24% | 36% | CCCCC[C@@H](O)/C=C/[C@H]1CCC(O)[C@@H]1C/C=C\CCCCO (stereo partly shown) [Compound 5, (5Z,13E)-1,9,15-triol-prosta-5,13-diene] |  | > 100 µg/mL | > 100 µg/mL | 
9 |  |  |  |  |  |  | 88% |  | COc1cccc2c1C(=O)c1c(O)c3c(c(O)c1C2=O)C[C@@](O)(C(=O)CO)C[C@@H]3O[C@H]1C[C@H](N)[C@H](O)[C@H](C)O1 [doxorubicin, reference compound] |  |  |  | 
